Data taken from patent publication US20210395721A1, “METHODS TO IMPROVE POTENCY OF ELECTROPORATION” (Codiak BioSciences, Inc., priority 2018, published 2021).

How the values were obtained:
[1] = Anion exchange chromatography (AEX) of siRNA before and after electroporation; format: physicochemical; conditions: for effect of excipient on AEX profile of XD-08318 after electroporation: 5 ms per pulse
Protocol: Anion exchange chromatography (AEX) was carried out on an Agilent 1100 HPLC using a […] PA200 column (Thermo Scientific). The column was equilibrated in 50 mM Tris pH 7.4, and 20 ng of each siRNA sample was prepared in a 100 μl HPLC vial for injection. The sample was injected and subjected to a gradient of 50 mM Tris pH 7.4 (mobile phase A) and 50 mM Tris, 1 M NaCl, pH 7.4 (mobile phase B) according to Tables 1 and 2, below. Electroporation is a common method for introducing nucleic acids into cells and other lipid structures such as exosomes. As an analytical method, siRNAs were analyzed by anion exchange chromatography (AEX), as described above, before and after electroporation. […] XD-08318 is a modified siRNA that contains a 5' terminal deoxyribose residue on the antisense strand, a combination of natural ribose and synthetic 2'-O-methyl ribose residues, and phosphorothioate linkages at the 3' ends of each strand (FIG. 2). Synthetic RNA XD-08318 was electroporated in the presence of several free radical scavengers and reducing agents as excipients.

KRAS G12D transcript = KRAS G12D transcript knockdown in Panc-1 cells; format: cell-based, human; conditions: FIG. 14, samples #9, #10 vs #4-8
Protocol: XD-08318 was loaded into exosomes by electroporation in the presence or absence of free radical scavengers. As a control, XD-08318 was transfected into the human pancreatic cancer cell line Panc-1, which is heterozygous for the G12D mutant transcript of KRAS. […] As controls, in the absence of any transfection reagent, Panc-1 cells were incubated with a mixture of the siRNA and exosomes without electroporation (mix), siRNA only, exosomes alone (EV only), or in the presence of siRNA and exosomes that were electroporated individually (si EP+EV EP Mix). […] Next, XD-08318 was loaded into exosomes by electroporation at pulse code 42 (sample 4) and incubated with cells, resulting in a modest ˜30% repression of the target transcript.

[2] = MaxCyte strong pulse code 66 (high field strength, high frequency)

Compound	effect of excipient on AEX profile of XD-08318 after electroporation ([1]; Gene Pulser XCell (Bio-Rad), 800 V, 2 pulses)	effect of excipient on AEX spectral shift of XD-08318 after electroporation [1, 2]	effect of excipient on AEX profile of XD-08318 after electroporation ([1]; Neon Transfection System, 2000 V, 8 pulses)	knock-down by modified siRNA electroporated into exosomes in presence of the scavenger, compared to absence of free radical scavengers (KRAS G12D transcript)	effect of excipient on AEX spectral shift of XD-08318 after electroporation ([1]; MaxCyte intermediate pulse code 63 (high field strength, low frequency))
N[C@@H](CCC(=O)N[C@@H](CS)C(=O)NCC(=O)O)C(=O)O [Glutathione]	prevent a change in the AEX profile	prevented the spectral shift	prevent a change in the AEX profile	–	–
CSCC[C@H](N)C(=O)O [L-Methionine]	–	prevented the spectral shift	–	increased knock-down	–
N[C@@H](CS)C(=O)O [L-cysteine]	–	prevented the spectral shift	–	–	prevented the spectral shift
